Measurements published in US8106055B2, “Substituted amide compounds” (Gruenenthal GmbH, priority 2007, dated 2012).

Columns and labels:
human μ opiate receptor = target: T1, human μ opiate receptor (Homo sapiens, UniProt P35372); assay: Affinity for the human μ opiate receptor ([3H]-naloxone displacement, CHO-K1 receptor membrane preparation, SPA); format: binding; details: test concentration of 1 μM
T1 construct: purchased PerkinElmer Life Sciences, Zaventem, Belgium RB-HOM; host or cells: CHO-K1 cells (membrane preparation)
T1 sequence (P35372 whole entry): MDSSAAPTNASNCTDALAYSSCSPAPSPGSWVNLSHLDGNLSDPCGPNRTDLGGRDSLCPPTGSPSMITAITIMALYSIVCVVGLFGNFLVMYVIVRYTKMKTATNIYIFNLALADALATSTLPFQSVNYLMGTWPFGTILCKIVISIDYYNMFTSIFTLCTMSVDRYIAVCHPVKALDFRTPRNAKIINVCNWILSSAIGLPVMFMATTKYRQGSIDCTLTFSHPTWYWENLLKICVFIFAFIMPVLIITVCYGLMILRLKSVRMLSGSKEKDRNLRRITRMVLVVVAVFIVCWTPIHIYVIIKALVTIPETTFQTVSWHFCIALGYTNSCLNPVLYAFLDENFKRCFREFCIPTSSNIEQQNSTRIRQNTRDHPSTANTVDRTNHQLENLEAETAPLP
Procedure, shortened: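 Membranes from CHO-K1 cells expressing the human μ opiate receptor (15-40 μg protein per well) were incubated with test compound, 1 nmol/l [3H]-naloxone and WGA-SPA beads in 50 mmol/l Tris-HCl with 0.06% BSA for 90 minutes at room temperature. Values are % inhibition of specific binding at 1 μmol/l.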

[1] = target: T2, serotonin (5-HT) reuptake (Rattus norvegicus, UniProt P31652); assay: Inhibition of serotonin (5HT) reuptake in synaptosomes from rat brain; format: biochemical; details: test concentration of 10 μM
T2 construct: synaptosomes are freshly isolated from areas of the rat brain; from tissue; host or cells: rat brain synaptosomes (P2 fraction)
T2 sequence (P31652 whole entry): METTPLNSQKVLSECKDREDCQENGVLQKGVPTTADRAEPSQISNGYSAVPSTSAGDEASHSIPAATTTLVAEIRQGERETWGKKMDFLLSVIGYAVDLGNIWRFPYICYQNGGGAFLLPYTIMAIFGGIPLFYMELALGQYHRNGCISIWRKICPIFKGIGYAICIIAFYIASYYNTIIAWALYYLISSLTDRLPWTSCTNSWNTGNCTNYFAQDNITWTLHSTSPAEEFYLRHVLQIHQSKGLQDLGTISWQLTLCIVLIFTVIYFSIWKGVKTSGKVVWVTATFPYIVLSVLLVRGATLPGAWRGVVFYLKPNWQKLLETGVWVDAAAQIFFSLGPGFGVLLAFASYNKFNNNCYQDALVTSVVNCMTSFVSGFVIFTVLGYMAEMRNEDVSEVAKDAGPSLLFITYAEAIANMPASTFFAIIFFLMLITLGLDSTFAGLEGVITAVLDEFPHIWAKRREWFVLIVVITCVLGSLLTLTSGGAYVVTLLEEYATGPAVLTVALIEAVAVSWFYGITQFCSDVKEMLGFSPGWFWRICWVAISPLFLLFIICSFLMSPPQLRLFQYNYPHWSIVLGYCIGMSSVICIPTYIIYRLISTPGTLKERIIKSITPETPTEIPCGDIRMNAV
Procedure, shortened: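 Freshly isolated rat brain synaptosomes (P2 fraction) used for 5-HT reuptake. Test compound at 10 μM, activity given as % inhibition.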

Structure (SMILES) | μ (binding on the μ opioid receptor, % inhibition) (human μ opiate receptor) [%] | 5-HT (inhibition of reuptake of serotonin, % inhibition) [1] [%]
COc1cc(C)c(S(=O)(=O)N2CCC(OCC(=O)NCC3CCC(C(c4ccc(F)cc4)N(C)C)CC3)C2)c(C)c1 (stereo not drawn) [Example 541] | 34 | 95
COc1cc(C)c(S(=O)(=O)N(CCOCC(=O)NC2CCC(C(c3ccc(F)cc3)N(C)C)CC2)Cc2ccccc2)c(C)c1C (stereo not drawn) [Example 523] | 34 | 81
Cc1ccc(S(=O)(=O)N(C)CCOCC(=O)NCCC2CCC(C(c3ccc(F)cc3)N(C)C)CC2)cc1 (stereo not drawn) [Example 457] | 47 | 90
CN(C)C(c1ccc(F)cc1)C1CCC(CCNC(=O)COCCN2CCN(S(=O)(=O)c3ccccc3)CC2)CC1 (stereo not drawn) [Example 493] | 34 | 96
COc1cc(C)c(S(=O)(=O)N2CCC(CCOCC(=O)NCC3CCC(C(c4ccc(F)cc4)N(C)C)CC3)CC2)c(C)c1C (stereo not drawn) [Example 481] | 38 | 88
CCN(CCOCC(=O)NCC1CCC(C(CCc2ccccc2)N(C)C)CC1)S(=O)(=O)c1c(C)cc(OC)c(C)c1C (stereo not drawn) [Example 536] | 43 | 84
COc1cc(C)c(S(=O)(=O)N2CCC(OCC(=O)NCCC3CCC(C(c4ccc(Cl)cc4)N(C)C)CC3)CC2)c(C)c1C (stereo not drawn) [Example 472] | 44 | 95
CN(C)C(c1ccc(F)cc1)C1CCC(CNC(=O)COC2CCN(S(=O)(=O)c3ccccc3)C2)CC1 (stereo not drawn) [Example 532] | 35 | 99
COc1cc(C)c(S(=O)(=O)N2CCC(OCC(=O)NCCC3CCC(C(c4ccc(Cl)cc4)N(C)C)CC3)C2)c(C)c1 (stereo not drawn) [Example 492] | 44 | 97
COc1ccc(S(=O)(=O)N(C)CCOCC(=O)NCCC2CCC(C(c3ccc(Cl)cc3)N(C)C)CC2)cc1 (stereo not drawn) [Example 460] | 52 | 86
CN(C)C(CCc1ccccc1)C1CCC(CNC(=O)COCCN(C)S(=O)(=O)c2ccc(F)cc2)CC1 (stereo not drawn) [Example 539] | 32 | 102
CN(C)C(c1ccc(F)cc1)C1CCC(CCNC(=O)COC2CCN(S(=O)(=O)c3ccc(F)cc3)C2)CC1 (stereo not drawn) [Example 518] | 35 | 102
COc1ccc(S(=O)(=O)N(C)CCOCC(=O)NCC2CCC(C(c3ccc(F)cc3)N(C)C)CC2)cc1 (stereo not drawn) [Example 508] | 31 | 80
CN(C)C(c1ccc(Cl)cc1)C1CCC(CCNC(=O)COCCC2CCN(S(=O)(=O)c3ccccc3)CC2)CC1 (stereo not drawn) [Example 531] | 23 | 98
COc1cc(C)c(S(=O)(=O)N(CCOCC(=O)NCC2CCC(C(CCc3ccccc3)N(C)C)CC2)Cc2ccccc2)c(C)c1 (stereo not drawn) [Example 542] | 33 | 87
CN(C)C(c1ccc(Cl)cc1)C1CCC(CNC(=O)COCCN(C)S(=O)(=O)c2ccc(Cl)cc2Cl)CC1 (stereo not drawn) [Example 459] | 36 | 68
COc1cc(C)c(S(=O)(=O)N(CCOCC(=O)NCC2CCC(C(c3ccc(F)cc3)N(C)C)CC2)Cc2ccccc2)c(C)c1 (stereo not drawn) [Example 494] | 42 | 89

Structure (SMILES) | μ (binding on the μ opioid receptor, % inhibition) (human μ opiate receptor) [%] | 5-HT (inhibition of reuptake of serotonin, % inhibition) [1] [%]
COc1ccc(S(=O)(=O)N2CCCCC2COCC(=O)NCCC2CCC(C(c3ccc(Cl)cc3)N(C)C)CC2)cc1OC (stereo not drawn) [Example 540] | 23 | 81
CN(C)C(c1ccc(F)cc1)C1CCC(CCNC(=O)COC2CCN(S(=O)(=O)c3ccc(Cl)cc3)C2)CC1 (stereo not drawn) [Example 464] | 46 | 88
CN(C)C(CCc1ccccc1)C1CCC(CNC(=O)COC2CCN(S(=O)(=O)c3ccc(Cl)cc3Cl)C2)CC1 (stereo not drawn) [Example 496] | 41 | 89
Cc1cc(C)c(S(=O)(=O)N(C)CCOCC(=O)NC2CCC(C(c3ccc(F)cc3)N(C)C)CC2)c(C)c1 (stereo not drawn) [Example 490] | 42 | 86
CN(C)C(c1ccc(F)cc1)C1CCC(CNC(=O)COC2CCN(S(=O)(=O)c3ccc(Cl)cc3)C2)CC1 (stereo not drawn) [Example 517] | 40 | 86
COc1ccc(S(=O)(=O)N2CCCCC2COCC(=O)NCCC2CCC(C(c3ccc(F)cc3)N(C)C)CC2)c(OC)c1 (stereo not drawn) [Example 500] | 43 | 90
CN(C)C(c1ccc(F)cc1)C1CCC(CCNC(=O)COCCN(C)S(=O)(=O)c2ccc(F)cc2)CC1 (stereo not drawn) [Example 487] | 37 | 101
CN(C)C(c1ccc(F)cc1)C1CCC(CCNC(=O)COC2CCN(S(=O)(=O)c3cccc(C(F)(F)F)c3)C2)CC1 (stereo not drawn) [Example 466] | 30 | 89
COc1ccc(S(=O)(=O)N2CCC(OCC(=O)NCC3CCC(C(c4ccc(F)cc4)N(C)C)CC3)C2)cc1OC (stereo not drawn) [Example 497] | 37 | 86
Cc1cc(C)c(S(=O)(=O)N2CCC(OCC(=O)NCCC3CCC(C(c4ccc(Cl)cc4)N(C)C)CC3)C2)c(C)c1 (stereo not drawn) [Example 506] | 42 | 86
COc1ccc(S(=O)(=O)N2CCCC2COCC(=O)NC2CCC(C(c3ccc(F)cc3)N(C)C)CC2)cc1 (stereo not drawn) [Example 461] | 43 | 94
CN(C)C(c1ccc(F)cc1)C1CCC(CCNC(=O)COC2CCCN(S(=O)(=O)c3ccccc3)C2)CC1 (stereo not drawn) [Example 520] | 31 | 97
CN(C)C(CCc1ccccc1)C1CCC(CNC(=O)COCCN(C)S(=O)(=O)c2c(Cl)cc(Cl)cc2Cl)CC1 (stereo not drawn) [Example 515] | 42 | 97
COc1cc(C)c(S(=O)(=O)N2CCC(OCC(=O)NCCC3CCC(C(c4ccc(F)cc4)N(C)C)CC3)C2)c(C)c1 (stereo not drawn) [Example 509] | 43 | 97
COc1cc(C)c(S(=O)(=O)N(CCOCC(=O)NC2CCC(C(c3ccc(F)cc3)N(C)C)CC2)Cc2ccccc2)c(C)c1 (stereo not drawn) [Example 504] | 43 | 89
COc1cc(C)c(S(=O)(=O)N(C)CCOCC(=O)NCC2CCC(C(c3ccc(F)cc3)N(C)C)CC2)c(C)c1 (stereo not drawn) [Example 458] | 48 | 85
